Laboratory results from patent US20190137482A1, “HIGH THROUGHPUT SCREENING OF AGENTS ON DOPAMINERGIC NEURONS” (Cell Cure Neurosciences Ltd., priority 2013, published 2019).

Tests used:
[1] = system: mature DA neurons; assay: TH expression in mature DA neurons after toxin exposure; format: cell-based, human
Experimental: For staining, cells on the coverslips were blocked in 5% normal goat/donkey serum (NGS) for 1 hour at room temperature. The anti TH antibody was diluted 1:100 or 1:1000 in 1% normal donkey/goat serum (NGS) and applied for 1 hour at room temperature. The antibodies that was employed were rabbit anti-human TH polyclonal antibody or mouse anti-human TH monoclonal antibody, Cat No. p40101, purchased from Pel-freez, or Cat No. T1299 purchased from Sigma and rabbit anti hu Nurr1 ab AB5778 (Millipore 10 ug/ml) or mouse igG anti NurrI (millipore, 1:200 or 1:1000), Rabbit Anti DAT AB5802 (Millipore, 1:500-1:1000). Following three washes in PBS, swine-anti rabbit FITC or goat anti mouse Cy-3-antibody diluted 1:50 or 1:500 in 1% normal goat serum (NGS) was applied for 1 hour at room temperature. Cells were washed in PBS, fixed with 4% PFA and mounted in the presence of the nuclear counterstain DAPI for immunofluoresecent microscopic examination.
(§1) An additional experiment compared the effect of 100 nM 6-OH dopamine with 200 nM 6-OH dopamine. As illustrated in FIGS. 10A-10B, after addition of 200 nM 6-OH-dopamine to mature DA neurons the fluorescence levels of dansylD1 was decreased (green) and also the percentage of cells expressing TH (DA neuron marker) declined to 1-2% (FIGS. 10C and D).

[2] = system: dopaminergic neurons; assay: DansylD1 fluorescence in dopaminergic neurons after toxin exposure; format: cell-based, human; settings: for DansylD1 fluorescence levels by micro-plate reader: 2 week differentiated live mature DA neurons, different toxin concentrations, 1 day, DansylD1 added again, FIG. 11
Experimental: For Binding and uptake of the fluorescent ligand, 500-1000 nM of DansylD1™ (Five Photon Biochemicals™, Lot#81672) was administrated to the seeded cells after 2 weeks of differentiation on the coverslips or on 12/24 wells plastic plates for 10-15 minutes in 37° C. DansylD1 functions as the dopamine neurotransmitter in binding to the D2 dopamine receptor on Dopaminergic and GABAergic neurons and uptake through the dopamine transporter (DAT) by dopaminergic neurons. 50 nM of the D2 dopamine receptor antagonist—Sulpiride (sigma S112, Lot#108H4745) or 5 nM of the dopamine transporter (DAT) blocker—GBR (Sigma G9659, Lot#086K4104), were added for 10 minutes to the seeded cells in order to reduce the binding to non-dopaminergic neurons or to block the specific DansylD1 uptake respectively. Uptake levels of the dansylD1 fluorescent ligand molecule were detected and analyzed by fluorescence microscope and a fluorescence micro-plate reader (Bioteck, 333/515 nm). Acquisition and analysis was performed using Magelan software and Microsoft Excel.
Dopaminergic neurons were fluorescently labeled with Dansyl D1. Increasing levels of 6-OH dopamine (50 nM and 100 nM) were added to the dopaminergic neurons and following 1 day of culture, the neurons were contacted again with Dansyl D1. The cells were rinsed and then the amount of fluorescence was analyzed.
as §1
(§2) Dansyl D1 was added to 2 week differentiated live mature DA neurons and the fluorescence levels quantified by fluorescence micro-plate reader. Later the cells were washed and different 6-OH-dopamine concentrations were added. After a day, dansylD1 was added again and the fluorescent levels measured once again.

[3] = system: PC12 cells; assay: DansylD1 uptake calibration in PC-12 cells (fluorescence microscope); format: cell-based; settings: 500 nM DansylD1, dopamine as competitive inhibitor, GBR as dopamine transporter blocker, FIGS. 3A-3D
Experimental: (§3) For Binding and uptake of the fluorescent ligand, 500-1000 nM of DansylD1™ (Five Photon Biochemicals™, Lot#81672) was administrated to the seeded cells after 2 weeks of differentiation on the coverslips or on 12/24 wells plastic plates for 10-15 minutes in 37° C. […] Uptake levels of the dansylD1 fluorescent ligand molecule were detected and analyzed by fluorescence microscope and a fluorescence micro-plate reader (Bioteck, 333/515 nm). Acquisition and analysis was performed using Magelan software and Microsoft Excel.

[4] = system: hESC-derived dopaminergic neurons; assay: DansylD1 labeling and uptake in hESC-derived dopaminergic neurons; format: cell-based, human; settings: for DansylD1 fluorescence level: hESC-derived dopaminergic neurons after 26 days of differentiation, agent present in the medium, FIGS. 6A-6D
Text: In order to direct the differentiation of hESCs into DA neurons, the cells were first directed to become neural progenitors within free-floating spheres (2 weeks) in the presence of the dual SMAD inhibitors (LDN193189+SB431542), FGF8, Purmorphamine and CHIR. They were further directed to differentiate into DA progenitors (7 days) as adherent cultures on laminin/fibronectin in the presence of FGF8, Purmorphamine and CHIR. Finally, they were differentiated into mature DA neurons (7 days) in the presence of the following factors (BDNF, NT4, AA, db-cAMP, TGFbeta3, GDNF and DAPT). The relevant factors/mitogens were replaced every 2-3 days.
as §3
The neuronal culture was incubated in the presence of the D2 antagonist Sulpiride.

[5] = system: DA neurons; assay: Protection of DA neurons from the toxin 6-OH dopamine; format: cell-based, human; settings: cells over-expressing GDNF; FIG. 12
Experimental: as §2

[6] = 200 nM toxin, mature DA neurons

NCCc1cc(O)c(O)cc1O [6-OH-dopamine]
TH positive cells ([1]; 100 nM toxin): only minor reduction | percentage of cells expressing TH [1, 6]: 1-2% | amount of Dansyl D1 fluorescence in dopaminergic cells ([2]; 50 nM and 100 nM toxin, 1 day of culture, relabeled with Dansyl D1, FIGS. 10A-10C): reduced | Dansyl-D1 uptake ([2]; 100 nM toxin): significant decrease | fluorescence levels of dansylD1 [2, 6]: decreased | DansylD1 fluorescence levels by micro-plate reader [2]: decreased by half | DansylD1 fluorescence levels by micro-plate reader ([2]; listed as 6-OH dopamine): reduced in correlation with the amount of toxin

Cl.Cl.Fc1ccc(C(OCCN2CCN(CCCc3ccccc3)CC2)c2ccc(F)cc2)cc1 [GBR]
amount of DansylD1 fluorescence in the cells [3]: decreased the amount of fluorescence | DansylD1 fluorescence level [4]: caused the fluorescence level to decline

NCCc1ccc(O)c(O)c1 [dopamine]
amount of DansylD1 fluorescence in the cells [3]: decreased the amount of fluorescence | DansylD1 fluorescence level [4]: caused the fluorescence level to decline

CCN1CCCC1CNC(=O)c1cc(S(N)(=O)=O)ccc1OC (stereo not shown) [sulpiride]
DansylD1 signal from the cells surface ([4]; neuronal culture incubated with the D2 antagonist, fluorescent vesicles appear, FIGS. 8A-8B): less signal from the cells surface

B1: GDNF: neurotrophic factor over-expressed by cells that protected DA neurons from the toxin (protein, UniProt P39905 78-211, looked up)
Glial cell line-derived …: SPDKQMAVLPRRERNRQAAAANPENSRGKGRRGQRGKNRGCVLTAIHLNVTDLGLGYETKEELIFRYCSGSCDAAETTYDKILKNLSRNRRLVSDKVGQACCRPIAFDDDLSFLDDNLVYHILRKHSAKRCGCI
protection of neurons from the toxin 6-OH dopamine [5]: protected
